For one test, the target named is CK1ε (Homo sapiens (Human), UniProt P49674). Description: CK1ε kinase assay (Caliper LABCHIP electrophoretic separation of fluoresceinated peptide substrate and product). In kind it is biochemical. The following applies: 200 pM enzyme, 50 μM ATP, 22 hours at room temperature. In short, it runs like this:
(§1)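 Kinase reactions ran 22 h at room temperature, were stopped with EDTA, and phosphorylated product was separated electrophoretically from unphosphorylated fluoresceinated peptide. Compounds were tested at eleven concentrations from 10 mM DMSO stocks. IC50 by non-linear regression.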

The next test addresses CK1δ (Homo sapiens (Human), UniProt P48730). In words: CK1δ kinase assay (Caliper LABCHIP electrophoretic separation of fluoresceinated peptide substrate and product). Type of test: biochemical. The following applies: 200 pM enzyme, 50 μM ATP, 22 hours at room temperature. In short, it runs like this:
as §1

SMILES strings stand for the structures.

The values below come from patent US9556179B2 (BRISTOL-MYERS SQUIBB COMPANY, priority 2012, dated 2017).

Sequence of CK1ε (P49674 whole entry): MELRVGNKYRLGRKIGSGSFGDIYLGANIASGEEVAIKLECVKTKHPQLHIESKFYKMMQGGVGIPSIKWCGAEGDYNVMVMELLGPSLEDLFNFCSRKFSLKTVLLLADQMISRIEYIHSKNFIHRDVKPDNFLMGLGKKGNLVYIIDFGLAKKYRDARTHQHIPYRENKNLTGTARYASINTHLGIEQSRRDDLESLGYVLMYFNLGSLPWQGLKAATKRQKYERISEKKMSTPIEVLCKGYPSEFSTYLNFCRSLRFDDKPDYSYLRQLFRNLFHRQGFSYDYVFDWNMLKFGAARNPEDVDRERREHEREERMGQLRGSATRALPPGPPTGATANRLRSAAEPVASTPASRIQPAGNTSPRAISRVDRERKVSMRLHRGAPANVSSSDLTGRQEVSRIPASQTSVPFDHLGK
Sequence of CK1δ (P48730 whole entry): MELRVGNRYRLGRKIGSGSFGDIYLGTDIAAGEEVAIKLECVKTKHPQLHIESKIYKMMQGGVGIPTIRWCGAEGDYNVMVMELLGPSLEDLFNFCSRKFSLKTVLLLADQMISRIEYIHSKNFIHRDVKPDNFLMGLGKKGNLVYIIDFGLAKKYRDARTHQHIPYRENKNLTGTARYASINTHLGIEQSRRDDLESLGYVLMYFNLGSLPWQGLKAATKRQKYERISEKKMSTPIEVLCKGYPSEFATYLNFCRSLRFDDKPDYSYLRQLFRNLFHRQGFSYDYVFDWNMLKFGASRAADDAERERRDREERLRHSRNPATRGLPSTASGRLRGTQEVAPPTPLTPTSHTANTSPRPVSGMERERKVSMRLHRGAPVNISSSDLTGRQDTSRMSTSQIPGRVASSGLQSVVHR

By IC50 is commonly meant the concentration at which inhibition is half-maximal. Regarding `O=C(Nc1cn2nc(-c3c(-c4ccc(F)cc4)ncn3-c3cccnc3)ccc2n1)c1cccc(-c2cccnc2)c1` [Compound 425, N-(6-(4-(4-Fluorophenyl)-1-(pyridin-3-yl)-1H-imidazol-5-yl)imidazo[1,2-b]pyridazin-2-yl)-3-(pyridin-3-yl)benzamide], the results for the IC50 against CK1ε and on CK1δ were 11 nM and 1.1 nM, respectively.

In the case of `O=C(Nc1cn2nc(-c3c(-c4ccc(F)cc4)ncn3CCN3CCOCC3)ccc2n1)c1ccnc(F)c1` [Compound 161, 2-fluoro-N-(6-(4-(4-fluorophenyl)-1-(2-morpholinoethyl)-1H-imidazol-5-yl)imidazo[1,2-b]pyridazin-2-yl) isonicotinamide], the IC50 against CK1ε stood at 2.5 nM; against CK1δ it was 0.415 nM.

Turning to `NC(=O)CN1CCC(n2c(C3CC3)nc(-c3ccc(F)cc3)c2-c2ccc3nc(NC(=O)c4ccnc(F)c4)cn3n2)CC1` [Compound 121, N-(6-(1-(1-(2-amino-2-oxoethyl)piperidin-4-yl)-2-cyclopropyl-4-(4-fluorophenyl)-1H-imidazol-5-yl)imidazo [1,2-b]pyridazin-2-yl)-2-fluoroisonicotinamide], the IC50 against CK1ε stood at 10.8 nM; against CK1δ, 0.489 nM.

Consider `O=C(Nc1cn2nc(-c3c(-c4ccc(F)cc4)nc4n3CCC4)ccc2n1)c1cccc(-c2cccnc2)c1` [Compound 440, N-(6-(2-(4-Fluorophenyl)-6,7-dihydro-5H-pyrrolo[1,2-a]imidazol-3-yl)imidazo[1,2-b]pyridazin-2-yl)-3-(pyridin-3-yl)benzamide], for which the figures for the IC50 against CK1ε and against CK1δ were 1.3 nM and 0.4 nM, respectively.

Regarding `Cc1nc(-c2ccc(F)cc2)c(-c2ccc3nc(NC(=O)c4cnc(-c5ccncc5)s4)cn3n2)n1C` [Compound 390, N-(6-(4-(4-fluorophenyl)-1,2-dimethyl-1H-imidazol-5-yl)imidazo[1,2-b]pyridazin-2-yl)-2-(pyridin-4-yl)thiazole-5-carboxamide], the IC50 against CK1ε turned out to be 32.6 nM; against CK1δ it was 7.2 nM.

Consider `O=C(Nc1cn2nc(-c3c(-c4ccc(F)cc4)nc4n3CCC4)ccc2n1)c1ccnc(N2CCOCC2)c1` [Compound 439, N-(6-(2-(4-Fluorophenyl)-6,7-dihydro-5H-pyrrolo[1,2-a]imidazol-3-yl)imidazo[1,2-b]pyridazin-2-yl)-2-morpholinoisonicotinamide], for which the IC50 on CK1ε is 3.3 nM; against CK1δ, 1.3 nM.

On to `Cc1nc(-c2ccc(F)cc2)c(-c2ccc3nc(NC(=O)c4ccc(F)nc4)cn3n2)n1C` [Compound 321, 6-fluoro-N-(6-(4-(4-fluoro-phenyl)-1,2-dimethyl-1H-imidazol-5-yl)imidazo[1,2-b]pyridazin-2-yl)nicotinamide], for which the IC50 was 1.97 nM against CK1ε and 0.152 nM at CK1δ.

As for `O=C(Nc1cn2nc(-c3c(-c4ccc(F)cc4)nc4n3CCNC4)ccc2n1)c1ccnc(N2CCOCC2)c1` [Compound 458, N-(6-(2-(4-Fluorophenyl)-5,6,7,8-tetrahydroimidazo[1,2-a]pyrazin-3-yl)imidazo[1,2-b]pyridazin-2-yl)-2-morpholinoisonicotinamide], the IC50 stood at 3.7 nM at CK1ε and 0.3 nM against CK1δ.

In the case of `O=C(Nc1cn2nc(-c3c(-c4ccc(F)cc4)ncn3C3CCN(Cc4ncc[nH]4)CC3)ccc2n1)c1ccnc(F)c1` [Compound 18, N-(6-(1-(1-((1H-imidazol-2-yl)methyl)piperidin-4-yl)-4-(4-fluorophenyl)-1H-imidazol-5-yl)imidazo[1,2-b]pyridazin-2-yl)-2-fluoroisonicotinamide], the IC50 is 0.599 nM on CK1ε and 0.259 nM at CK1δ.

As for `Cc1nc(-c2ccc(F)cc2)c(-c2ccc3nc(NC(=O)c4cc(C(C)(C)C)ncn4)cn3n2)n1C` [Compound 400, 6-(tert-butyl)-N-(6-(4-(4-fluorophenyl)-1,2-dimethyl-1H-imidazol-5-yl)imidazo[1,2-b]pyridazin-2-yl) pyrimidine-4-carboxamide], the IC50 amounted to 23.3 nM against CK1ε and 6.76 nM against CK1δ.

As to `CC(C)(C)C1CCC(n2cnc(-c3ccc(F)cc3)c2-c2ccc3nc(NC(=O)c4ccnc(F)c4)cn3n2)CC1` (centres unmarked) [Compound 256, N-(6-(1-(4-tert-butylcyclohexyl)-4-(4-fluorophenyl)-1H-imidazol-5-yl)imidazo[1,2-b]pyridazin-2-yl)-2-fluoroisonicotinamide], the IC50 against CK1ε is 230 nM; on CK1δ it was 10.2 nM.

Regarding `NS(=O)(=O)CCCn1cnc(-c2ccc(F)cc2)c1-c1ccc2nc(NC(=O)c3ccnc(F)c3)cn2n1` [Compound 241], the figures for the IC50 at CK1ε and at CK1δ were 1.4 nM and 0.362 nM, respectively.

`O=C(Nc1cn2nc(-c3c(-c4ccc(F)cc4)nc4n3CCOC4)ccc2n1)c1ccnc(N2CCOCC2)c1` [Compound 450, N-(6-(2-(4-Fluorophenyl)-6,8-dihydro-5H-imidazo[2,1-c][1,4]oxazin-3-yl)imidazo[1,2-b]pyridazin-2-yl)-2-morpholinoisonicotinamide]: the IC50 at CK1ε was determined as 6.9 nM; at CK1δ, 0.7 nM.

For the molecule `O=C(Nc1cn2nc(-c3c(-c4ccc(F)cc4)nc4n3CCOC4)ccc2n1)c1ccnc(F)c1` [Compound 447, 2-Fluoro-N-(6-(2-(4-fluorophenyl)-6,8-dihydro-5H-imidazo[2,1-c][1,4]oxazin-3-yl)imidazo[1,2-b]pyridazin-2-yl)isonicotinamide], the IC50 came out at 5.8 nM at CK1ε and 0.4 nM against CK1δ.

On to `O=C(Nc1cn2nc(-c3c(-c4ccc(F)cc4)ncn3C3CCN(C(=O)c4c[nH]cn4)CC3)ccc2n1)c1ccnc(F)c1` [Compound 72, N-(6-(1-(1-(1H-imidazole-4-carbonyl)piperidin-4-yl)-4-(4-fluorophenyl)-1H-imidazol-5-yl)imidazo(1,2-b]pyridazin-2-yl)-2-fluoroisonicotinamide], for which the figures for the IC50 against CK1ε and against CK1δ were 0.559 nM and 0.183 nM, respectively.

Take `Cc1nc(-c2ccc(F)cc2)c(-c2ccc3nc(NC(=O)c4ccc(-c5ccc(Cl)cc5)[nH]4)cn3n2)n1C` [Compound 329, 5-(4-chlorophenyl)-N-(6-(4-(4-fluorophenyl)-1,2-di-methyl-1H-imidazol-5-yl)imidazo[1,2-b]pyridazin-2-yl)-1H-pyrrole-2-carboxamide]: the IC50 on CK1ε was 18.5 nM; against CK1δ it was 3.47 nM.

Take `CC(C)(C)c1cc(C(=O)Nc2cn3nc(-c4c(-c5ccc(F)cc5)nc5ccccn45)ccc3n2)ncn1` [Compound 202, 6-(tert-butyl)-N-(6-(2-(4-fluorophenyl)imidazo[1,2-a]pyridin-3-yl)imidazo[1,2-b]pyridazin-2-yl)pyrimidine-4-carboxamide]: the IC50 was 28.1 nM on CK1ε and 9.84 nM at CK1δ.

For `O=C(Nc1cn2nc(-c3c(-c4ccc(F)cc4)nc4n3CCN(C(=O)C3(C(F)(F)F)CC3)C4)ccc2n1)c1ccnc(F)c1` [Compound 472, 2-Fluoro-N-(6-(2-(4-fluorophenyl)-7-(1-(trifluoromethyl)cyclopropanecarbonyl)-5,6,7,8-tetrahydroimidazo[1,2-a]pyrazin-3-yl)imidazo[1,2-b]pyridazin-2-yl)isonicotinamide], the IC50 against CK1ε came out at 4.5 nM; against CK1δ, 0.6 nM.

Turning to `O=C(Nc1cn2nc(-c3c(-c4ccc(F)cc4)nc4ccccn34)ccc2n1)c1ccnc(C(F)(F)F)c1` [Compound 198, N-(6-(2-(4-fluorophenyl)imidazo[1,2-a]pyridin-3-yl)imidazo[1,2-b]pyridazin-2-yl)-2-(trifluoromethyl) isonicotinamide], the IC50 came to 34.6 nM against CK1ε and 3.88 nM on CK1δ.
